Test results from PubChem BioAssay (NCI).
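In this assay, cells in 96-well plates receive the compound at five concentrations for 48 hours. Endpoints are linearly interpolated between the surrounding concentrations. Here, GI50 denotes the concentration required for 50% inhibition of growth. TGI is the concentration that stops growth completely.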

Assays:
Experiment in all cases: DTP human tumour cell line panel, 48 h
786-0 renal = tested on: 786-0 renal
A498 renal = tested on: A498 renal
A549 NSCLC = tested on: A549 NSCLC
ACHN renal = tested on: ACHN renal
BT-549 breast = tested on: BT-549 breast
CAKI-1 renal = tested on: CAKI-1 renal
COLO 205 colon = tested on: COLO 205 colon
DU-145 prostate = tested on: DU-145 prostate
HCC-2998 colon = tested on: HCC-2998 colon
HCT-15 colon = tested on: HCT-15 colon
HL-60(TB) leukemia = tested on: HL-60(TB) leukemia
HOP-62 NSCLC = tested on: HOP-62 NSCLC
HOP-92 NSCLC = tested on: HOP-92 NSCLC
HT29 colon = tested on: HT29 colon
IGROV1 ovarian = tested on: IGROV1 ovarian
K-562 leukemia = tested on: K-562 leukemia
KM12 colon = tested on: KM12 colon
LOX IMVI melanoma = tested on: LOX IMVI melanoma
M14 melanoma = tested on: M14 melanoma
MALME-3M melanoma = tested on: MALME-3M melanoma
MCF7 breast = tested on: MCF7 breast
MDA-MB-231 breast = tested on: MDA-MB-231 breast
MDA-MB-435 = tested on: MDA-MB-435
MDA-MB-468 breast = tested on: MDA-MB-468 breast
NCI-H226 lung = tested on: NCI-H226 lung
NCI-H23 lung = tested on: NCI-H23 lung
NCI-H522 lung = tested on: NCI-H522 lung
OVCAR-3 ovarian = tested on: OVCAR-3 ovarian
OVCAR-4 ovarian = tested on: OVCAR-4 ovarian
OVCAR-5 ovarian = tested on: OVCAR-5 ovarian
PC-3 prostate = tested on: PC-3 prostate
RPMI-8226 leukemia = tested on: RPMI-8226 leukemia
SF-268 CNS = tested on: SF-268 CNS
SF-539 CNS = tested on: SF-539 CNS
SK-MEL-2 melanoma = tested on: SK-MEL-2 melanoma
SK-MEL-28 melanoma = tested on: SK-MEL-28 melanoma
SK-MEL-5 melanoma = tested on: SK-MEL-5 melanoma
SK-OV-3 ovarian = tested on: SK-OV-3 ovarian
SNB-19 CNS = tested on: SNB-19 CNS
SNB-75 CNS = tested on: SNB-75 CNS
SW-620 colon = tested on: SW-620 colon
T-47D breast = tested on: T-47D breast
TK-10 renal = tested on: TK-10 renal
U251 CNS = tested on: U251 CNS
UACC-257 melanoma = tested on: UACC-257 melanoma
UACC-62 melanoma = tested on: UACC-62 melanoma
UO-31 renal = tested on: UO-31 renal

CC(=O)Oc1ccccc1C(=O)[Se]CC(=O)Nc1cccc(C(F)(F)F)c1 showed a GI50 (786-0 renal) of 2.21 µM, a TGI (786-0 renal) of 4.62 µM and a GI50 (A498 renal) of 1.45 µM. For the same molecule, the TGI (A498 renal) was 2.95 µM, the GI50 (A549 NSCLC) was 1.66 µM and the TGI (A549 NSCLC) was 3.8 µM. For the same molecule, the GI50 (ACHN renal) was 2.39 µM, the TGI (ACHN renal) was 6.36 µM and the GI50 (BT-549 breast) was 2.13 µM. The TGI (BT-549 breast) was 3.61 µM, the GI50 (CAKI-1 renal) was 0.198 µM and the TGI (CAKI-1 renal) was 0.361 µM. The GI50 (COLO 205 colon) was 4.35 µM, the TGI (COLO 205 colon) was 17 µM and the GI50 (DU-145 prostate) was 2.09 µM. The TGI (DU-145 prostate) was 4.61 µM, the GI50 (HCC-2998 colon) was 11.9 µM and the TGI (HCC-2998 colon) was 25.7 µM. It also gave a GI50 (HCT-15 colon) of 1.42 µM, a TGI (HCT-15 colon) of 2.85 µM and a GI50 (HL-60(TB) leukemia) of 1.78 µM. It also gave a TGI (HL-60(TB) leukemia) of 5.27 µM, a GI50 (HOP-62 NSCLC) of 2.91 µM and a TGI (HOP-62 NSCLC) of 5.44 µM. It also gave a GI50 (HOP-92 NSCLC) of 0.763 µM, a TGI (HOP-92 NSCLC) of 2.15 µM and a GI50 (HT29 colon) of 1.88 µM. The TGI (HT29 colon) was 5.16 µM, the GI50 (IGROV1 ovarian) was 2.05 µM and the TGI (IGROV1 ovarian) was 4 µM. It also gave a GI50 (K-562 leukemia) of 5.59 µM, a TGI (K-562 leukemia) of 55.3 µM and a GI50 (KM12 colon) of 5.04 µM. For the same molecule, the TGI (KM12 colon) was 19.5 µM, the GI50 (LOX IMVI melanoma) was 1.94 µM and the TGI (LOX IMVI melanoma) was 3.65 µM. It also gave a GI50 (M14 melanoma) of 1.95 µM, a TGI (M14 melanoma) of 3.83 µM and a GI50 (MALME-3M melanoma) of 1.57 µM. It also gave a TGI (MALME-3M melanoma) of 3.04 µM, a GI50 (MCF7 breast) of 2.75 µM and a TGI (MCF7 breast) of 12.4 µM. For the same molecule, the GI50 (MDA-MB-231 breast) was 2.31 µM, the TGI (MDA-MB-231 breast) was 4.18 µM and the GI50 (MDA-MB-435) was 3.12 µM. For the same molecule, the TGI (MDA-MB-435) was 5.41 µM, the GI50 (MDA-MB-468 breast) was 1.75 µM and the TGI (MDA-MB-468 breast) was 3.35 µM. The GI50 (NCI-H226 lung) was 3.11 µM, the TGI (NCI-H226 lung) was 5.55 µM and the GI50 (NCI-H23 lung) was 1.5 µM. For the same molecule, the TGI (NCI-H23 lung) was 3.87 µM, the GI50 (NCI-H522 lung) was 1.83 µM and the TGI (NCI-H522 lung) was 3.81 µM. It also gave a GI50 (OVCAR-3 ovarian) of 1.71 µM, a TGI (OVCAR-3 ovarian) of 4.38 µM and a GI50 (OVCAR-4 ovarian) of 5.19 µM. It also gave a TGI (OVCAR-4 ovarian) of 60.9 µM, a GI50 (OVCAR-5 ovarian) of 2.15 µM and a TGI (OVCAR-5 ovarian) of 5.12 µM. The GI50 (PC-3 prostate) was 5.23 µM, the TGI (PC-3 prostate) was 21.9 µM and the GI50 (RPMI-8226 leukemia) was 5.44 µM. For the same molecule, the TGI (RPMI-8226 leukemia) was 85 µM, the GI50 (SF-268 CNS) was 2.69 µM and the TGI (SF-268 CNS) was 5.87 µM. The GI50 (SF-539 CNS) was 1.87 µM, the TGI (SF-539 CNS) was 3.34 µM and the GI50 (SK-MEL-2 melanoma) was 2.84 µM. For the same molecule, the TGI (SK-MEL-2 melanoma) was 10.9 µM, the GI50 (SK-MEL-28 melanoma) was 2.06 µM and the TGI (SK-MEL-28 melanoma) was 4.35 µM. It also gave a GI50 (SK-MEL-5 melanoma) of 1.29 µM, a TGI (SK-MEL-5 melanoma) of 2.69 µM and a GI50 (SK-OV-3 ovarian) of 4.22 µM. It also gave a TGI (SK-OV-3 ovarian) of 20.3 µM, a GI50 (SNB-19 CNS) of 1.86 µM and a TGI (SNB-19 CNS) of 3.8 µM. It also gave a GI50 (SNB-75 CNS) of 2.47 µM, a TGI (SNB-75 CNS) of 5.94 µM and a GI50 (SW-620 colon) of 1.46 µM. For the same molecule, the TGI (SW-620 colon) was 3.11 µM, the GI50 (T-47D breast) was 7.09 µM and the TGI (T-47D breast) was 49.5 µM. It also gave a GI50 (TK-10 renal) of 2.07 µM, a TGI (TK-10 renal) of 4.71 µM and a GI50 (U251 CNS) of 2.12 µM. The TGI (U251 CNS) was 5.3 µM, the GI50 (UACC-257 melanoma) was 3.21 µM and the TGI (UACC-257 melanoma) was 9.82 µM. It also gave a GI50 (UACC-62 melanoma) of 1.38 µM, a TGI (UACC-62 melanoma) of 3.07 µM and a GI50 (UO-31 renal) of 1.23 µM. It also gave a TGI (UO-31 renal) of 2.56 µM.
